The test system of experiment [1] is AVEFA. As to the kind of experiment: Pre-emergence herbicidal action against AVEFA. In kind it is in vivo, Avena fatua. Particulars: 320 g/ha, scored visually after 3 weeks vs untreated controls. In outline:
(§1)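 Pots of sandy loam with covered seeds receive a surface application of compound (WP or EC; aqueous, 600 to 800 L/ha, 0.2% wetting agent) before emergence. Under good greenhouse growth conditions, percent damage is judged by eye at 3 weeks against untreated controls.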

The test system of experiment [2] is ALOMY. In words: Pre-emergence herbicidal action against ALOMY. Type of experiment: in vivo, Alopecurus myosuroides. Particulars: 320 g/ha, scored visually after 3 weeks vs untreated controls. In outline:
as §1

Experiment [3] concerns VIOTR. In words: Pre-emergence herbicidal action against VIOTR. Particulars: 320 g/ha. In kind it is in vivo, Viola tricolor. In outline:
as §1

In experiment [4] the test system is LOLRI. As to the kind of experiment: Pre-emergence herbicidal action against LOLRI (Table 8, titled post-emergence at 320 g/ha). Type of experiment: in vivo, Lolium rigidum. The settings on record: table stands in the pre-emergence section. Put shortly:
as §1

A further experiment has as its system AMARE. In words: Pre-emergence herbicidal action against AMARE. Type of experiment: in vivo, Amaranthus retroflexus. Particulars: 320 g/ha. In outline: as §1
For the next experiment, the system named is PHBPU. As to the kind of experiment: Post-emergence herbicidal action against PHBPU. Type of experiment: in vivo. The settings on record: assessed visually after about 3 weeks, 100% = plants have died, 0% = like control plants. How it is done: (§2) Seeds of monocotyledonous and dicotyledonous weed and crop plants are laid out in sandy loam soil in wood-fiber pots, covered with soil and cultivated in a greenhouse under good growth conditions. 2 to 3 weeks after sowing, the test plants are treated at the one-leaf stage. The compounds of the invention, formulated in the form of wettable powders (WP) or as emulsion concentrates (EC), are then sprayed onto the green parts of the plants as aqueous suspension or emulsion at a water application rate equating to 600 to 800 l/ha with addition of 0.2% wetting agent. After the test plants have been left to stand in the greenhouse under optimal growth conditions for about 3 weeks, the action of the preparations is assessed visually in comparison to untreated controls (herbicidal action in percent (%): 100% activity=the plants have died, 0% activity=like control plants).

Experiment [5] has as its system ABUTH. In words: Pre-emergence herbicidal action against ABUTH. In kind it is in vivo, Abutylon threophrasti. The settings on record: 320 g/ha. Put shortly: as §1
Experiment [6] has as its system SETVI. As to the kind of experiment: Post-emergence herbicidal action against SETVI. Type of experiment: in vivo, Setaria viridis. The settings on record: 80 g/ha, visual assessment about 3 weeks after treatment vs untreated controls. In outline:
(§3)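 Greenhouse post-emergence test; one-leaf stage (2–3 wk post-sowing), sandy loam. Spray: WP/EC in water, 600–800 l/ha, 0.2% wetting agent, onto green parts. Visual rating ~3 wk later, % vs untreated (100% = dead, 0% = like control).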

Experiment [7] has as its system ALOMY. In words: Post-emergence herbicidal action against ALOMY. The settings on record: 80 g/ha, visual assessment after about 3 weeks. Type of experiment: in vivo, Alopecurus myosuroides. Put shortly:
as §3

For another experiment, the system named is MATIN. In words: Pre-emergence herbicidal action against MATIN. Type of experiment: in vivo. The settings on record: 320 g/ha. In outline: as §1
Experiment [8] deals with ECHCG. In words: Post-emergence herbicidal action against ECHCG. Type of experiment: in vivo, Echinochloa crus-galli. The settings on record: 80 g/ha, visual assessment about 3 weeks after treatment vs untreated controls. In outline:
as §3

Experiment [9] deals with DIGSA. As to the kind of experiment: Pre-emergence herbicidal action against DIGSA. In kind it is in vivo, Digitaria sanguinalis. The settings on record: 320 g/ha, scored visually after 3 weeks vs untreated controls. Put shortly: as §1
For experiment [10], the system named is LOLRI. As to the kind of experiment: Post-emergence herbicidal action against LOLRI. In kind it is in vivo, Lolium rigidum. The settings on record: 80 g/ha, visual assessment about 3 weeks after treatment vs untreated controls. Put shortly:
as §3

The subject of experiment [11] is VIOTR. As to the kind of experiment: Post-emergence herbicidal action against VIOTR. In kind it is in vivo, Viola tricolor. The settings on record: 80 g/ha, visual assessment about 3 weeks after treatment vs untreated controls. Put shortly:
as §3

For experiment [12], the system named is DIGSA. In words: Post-emergence herbicidal action against DIGSA. Type of experiment: in vivo, Digitaria sanguinalis. Particulars: 80 g/ha, visual assessment about 3 weeks after treatment vs untreated controls. Put shortly:
as §3

Experiment [13] deals with SETVI. As to the kind of experiment: Pre-emergence herbicidal action against SETVI. Particulars: 320 g/ha, scored visually after 3 weeks vs untreated controls. Type of experiment: in vivo, Setaria viridis. Put shortly: as §1
Experiment [14] concerns ECHCG. As to the kind of experiment: Pre-emergence herbicidal action against ECHCG. Type of experiment: in vivo, Echinochloa crus-galli. Particulars: 320 g/ha, scored visually after 3 weeks vs untreated controls. In outline: as §1
For experiment [15], the system named is POLCO. In words: Post-emergence herbicidal action against POLCO. The settings on record: 80 g/ha, visual assessment about 3 weeks after treatment vs untreated controls. Type of experiment: in vivo, Polygonum convolvulus. The procedure:
as §2

The next experiment has as its system HORMU. In words: Post-emergence herbicidal action against HORMU. In kind it is in vivo, Hordeum murinum. The settings on record: 80 g/ha, visual assessment about 3 weeks after treatment vs untreated controls. In outline: as §3
Experiment [16] relates to ABUTH. As to the kind of experiment: Post-emergence herbicidal action against ABUTH. In kind it is in vivo, Abutylon threophrasti. Particulars: 80 g/ha, visual assessment about 3 weeks after treatment vs untreated controls. Put shortly: as §3
In experiment [17] the test system is AVEFA. In words: Post-emergence herbicidal action against AVEFA. Type of experiment: in vivo, Avena fatua. Particulars: 80 g/ha, visual assessment after about 3 weeks. Put shortly:
as §3

Experiment [18] has as its system POLCO. As to the kind of experiment: Pre-emergence herbicidal action against POLCO. In kind it is in vivo, Polygonum convolvulus. The settings on record: 320 g/ha. Put shortly: as §1
The subject of the next experiment is VERPE. As to the kind of experiment: Pre-emergence herbicidal action against VERPE. The settings on record: 320 g/ha. In kind it is in vivo, Veronica persica. In outline: as §1

As for `CC#Cc1cc(C)c(C2=C(O)C3(CCC(COCCC)C3)NC2=O)c(Cl)c1` (centres unmarked) [Example I-68], in the experiment on AVEFA [1], the “Pre-emergence action against AVEFA in %” value is given as 100%. Further, the “Pre-emergence action against ALOMY in %” value in the experiment with ALOMY [2] was 100%. Further, the “Pre-emergence action against VIOTR in %” value in the experiment on VIOTR [3] was 100%. The “Pre-emergence herbicidal action against LOLRI in %” value with LOLRI [4] came to 100%. In the experiment with AMARE, the “Pre-emergence action against AMARE in %” value is listed as 100%. The “Post-emergence action at 80 g/ha against PHBPU in %” value in the experiment with PHBPU stood at 80%. Moreover, in the experiment on ABUTH [5], the “Pre-emergence action against ABUTH in %” value was determined as 90%. Moreover, in the experiment with SETVI [6], the “Post-emergence action against SETVI in %” value worked out at 100%. For the same molecule, the “Post-emergence action against ALOMY in %” value in the experiment on ALOMY [7] was 100%. In addition, the “Pre-emergence action against MATIN in %” value in the experiment on MATIN turned out to be 100%. In addition, the “Post-emergence action against ECHCG in %” value with ECHCG [8] amounted to 100%. Moreover, the “Pre-emergence action against DIGSA in %” value in the experiment on DIGSA [9] amounted to 100%. Besides, the “Post-emergence action against LOLRI in %” value in the experiment on LOLRI [10] is recorded as 100%. Besides, the “Post-emergence action against VIOTR in %” value with VIOTR [11] turned out to be 80%. Moreover, the “Post-emergence action against DIGSA in %” value in the experiment on DIGSA [12] is on record as 100%. The “Pre-emergence action against SETVI in %” value in the experiment with SETVI [13] came to 100%. Moreover, the “Pre-emergence action against ECHCG in %” value with ECHCG [14] stood at 100%.

For `CC#Cc1cc(C)c(C2=C(OC(=O)C(C)C)C3(CCC(COC)C3)NC2=O)c(Cl)c1` (centres unmarked) [Example P-16], the “Post-emergence action against POLCO in %” value with POLCO [15] was determined as 80%. Moreover, the “Post-emergence action against SETVI in %” value in the experiment with SETVI [6] amounted to 100%. In addition, the “Post-emergence action against ALOMY in %” value with ALOMY [7] is 100%. Also, the “Post-emergence action against ECHCG in %” value with ECHCG [8] is recorded as 100%. Besides, in the experiment on HORMU, the “Post-emergence action against HORMU in %” value worked out at 100%. For the same molecule, the “Post-emergence action against LOLRI in %” value in the experiment on LOLRI [10] turned out to be 100%. For the same molecule, the “Post-emergence action against ABUTH in %” value in the experiment with ABUTH [16] amounted to 80%. In addition, in the experiment on VIOTR [11], the “Post-emergence action against VIOTR in %” value is 80%. For the same molecule, in the experiment with AVEFA [17], the “Post-emergence action against AVEFA in %” value is 100%. Also, the “Post-emergence action against DIGSA in %” value with DIGSA [12] came to 100%.

On to `CC#Cc1cc(C)c(C2=C(OC(=O)OCC)C3(CCC(COC)C3)NC2=O)c(F)c1` (centres unmarked) [Example P-51], for which the “Post-emergence action against POLCO in %” value with POLCO [15] is 80%. The “Pre-emergence action against AVEFA in %” value in the experiment on AVEFA [1] came out at 80%. In addition, in the experiment with ALOMY [2], the “Pre-emergence action against ALOMY in %” value came out at 100%. Besides, in the experiment with VIOTR [3], the “Pre-emergence action against VIOTR in %” value was 100%. The “Pre-emergence action against POLCO in %” value with POLCO [18] turned out to be 90%. Further, in the experiment with LOLRI [4], the “Pre-emergence herbicidal action against LOLRI in %” value turned out to be 100%. Moreover, the “Pre-emergence action against AMARE in %” value with AMARE was determined as 90%. Also, the “Pre-emergence action against ABUTH in %” value in the experiment with ABUTH [5] turned out to be 80%. In the experiment with ALOMY [7], the “Post-emergence action against ALOMY in %” value was determined as 100%. For the same molecule, the “Post-emergence action against ECHCG in %” value in the experiment on ECHCG [8] is 100%. Besides, the “Pre-emergence action against DIGSA in %” value with DIGSA [9] came out at 100%. The “Post-emergence action against LOLRI in %” value with LOLRI [10] was determined as 100%. In the experiment with ABUTH [16], the “Post-emergence action against ABUTH in %” value is on record as 80%. The “Post-emergence action against AVEFA in %” value in the experiment on AVEFA [17] turned out to be 100%. Also, the “Post-emergence action against DIGSA in %” value in the experiment on DIGSA [12] was determined as 100%. In addition, in the experiment on SETVI [13], the “Pre-emergence action against SETVI in %” value is listed as 100%. Also, in the experiment with ECHCG [14], the “Pre-emergence action against ECHCG in %” value is given as 100%.

For `CC#Cc1cc(C)c(C2=C(OC(=O)OCC)C3(CCC(COCCC)C3)NC2=O)c(OC)c1` (centres unmarked) [Example P-81], the “Pre-emergence action against AVEFA in %” value with AVEFA [1] is listed as 100%. In the experiment with ALOMY [2], the “Pre-emergence action against ALOMY in %” value came out at 100%. The “Pre-emergence action against VIOTR in %” value in the experiment with VIOTR [3] is reported as 100%. The “Pre-emergence action against POLCO in %” value in the experiment with POLCO [18] was 100%. Also, the “Pre-emergence herbicidal action against LOLRI in %” value with LOLRI [4] was found to be 100%. For the same molecule, the “Pre-emergence action against AMARE in %” value with AMARE came out at 100%. For the same molecule, the “Post-emergence action at 80 g/ha against PHBPU in %” value in the experiment on PHBPU is on record as 80%. In the experiment with SETVI [6], the “Post-emergence action against SETVI in %” value worked out at 100%. Besides, the “Post-emergence action against ALOMY in %” value in the experiment on ALOMY [7] is reported as 100%. Besides, in the experiment with MATIN, the “Pre-emergence action against MATIN in %” value is given as 80%. Also, in the experiment on ECHCG [8], the “Post-emergence action against ECHCG in %” value came to 100%. Besides, in the experiment with DIGSA [9], the “Pre-emergence action against DIGSA in %” value is recorded as 100%. Moreover, in the experiment on LOLRI [10], the “Post-emergence action against LOLRI in %” value was found to be 100%. In the experiment with AVEFA [17], the “Post-emergence action against AVEFA in %” value was 80%. Besides, in the experiment on VERPE, the “Pre-emergence action against VERPE in %” value is recorded as 90%. In addition, the “Post-emergence action against DIGSA in %” value in the experiment on DIGSA [12] was 90%. The “Pre-emergence action against SETVI in %” value in the experiment with SETVI [13] amounted to 100%. In addition, in the experiment on ECHCG [14], the “Pre-emergence action against ECHCG in %” value was 100%.

The values are drawn from US20220386606A1, “SPECIFICALLY SUBSTITUTED 3-PHENYL-5-SPIROCYCLOPENTYL-3-PYRROLIN-2-ONES AND THEIR USE AS HERBICIDES” (Bayer Aktiengesellschaft, priority 2019, published 2022).
